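Five compound concentrations were applied to cells in 96-well plates for 48 hours; endpoints were derived by simple linear interpolation of the resulting dose-response curve. At the GI50, growth is halved. The concentration for full growth arrest is given as TGI.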
Legend:
Experiment in all cases: growth of human tumour cells (NCI), 48 h
[1] = tested on: SK-MEL-2 melanoma
[2] = tested on: HL-60(TB) leukemia
[3] = tested on: MDA-MB-435
[4] = tested on: NCI-H522 lung
[5] = tested on: CAKI-1 renal
[6] = tested on: ACHN renal
[7] = tested on: M14 melanoma
[8] = tested on: BT-549 breast
[9] = tested on: OVCAR-8 ovarian
[10] = tested on: 786-0 renal

Row | SMILES | GI50 [1] [µM] | TGI [1] [µM] | GI50 [2] [µM] | TGI [2] [µM] | GI50 [3] [µM] | TGI [3] [µM] | GI50 [4] [µM] | TGI [4] [µM] | GI50 [5] [µM] | TGI [5] [µM] | GI50 [6] [µM] | TGI [6] [µM] | GI50 [7] [µM] | TGI [7] [µM] | GI50 [8] [µM] | TGI [8] [µM] | GI50 [9] [µM] | TGI [9] [µM] | GI50 [10] [µM] | TGI [10] [µM]
1 | O=C(c1ccccc1)c1ccc(-c2ccc(O)cc2)cc1 | 6.95 | 61 | 1.89 | 11.1 | 0.328 | 1.55 | 1.66 | 8.47 | 2.35 | 9.84 | 6.88 | 36.3 | 2.04 | > 100 | 4.04 | 31.3 | 12.4 | 68.9 | 17.8 | > 66.8
2 | CC1=CC[C@@H]2[C@@H](CC[C@@]2(C)O)C(C)(C)[C@H]1CC[C@@H]1[C@@]2(C)CCC(=O)C(C)(C)O[C@@H]2CC[C@]1(C)O | – | > 100 | – | 35 | – | > 100 | – | 38.9 | – | 96.6 | – | 42.4 | – | 59.3 | – | 57.8 | – | 62.1 | – | 59.6
3 | OCC1SC(n2cnc3cncnc32)C(O)C1O (stereo not given) | > 100 | > 100 | > 100 | > 100 | > 100 | > 100 | > 100 | > 100 | > 100 | > 100 | > 100 | > 100 | > 100 | > 100 | > 100 | > 100 | 85.2 | > 100 | > 100 | > 100
